Data reported in patent publication US9421492B2, “Aminopyridine derivatives for removal of hydrogen sulfide from a gas mixture” (Dow Global Technologies LLC, priority 2011, dated 2016).

Assay: Solubility in unbuffered water
Details: unbuffered de-ionized water, 25° C., average of three experiments
Source text: The experiment is repeated three times and the average solubilities are reported as weight percent (wt %) in Table 1.

Solubility, wt % [wt %] | Compound
3 | Cc1cc(N(C)C)cc(C)n1 [DMAPL, 2,6-dimethyl-4-(dimethylamino)pyridine]
8 | CN(C)c1ccncc1 [DMAP, 4-dimethylaminopyridine]
5 | Cc1cc(N(C)C)ccn1 [DMAPP, 2-methyl-4-(dimethylamino)pyridine]

Compound | Solubility, wt % [wt %]
1-hydroxyethyl-4-pyridynyl-pyperazine [HEPP] | 60
